In brackets after ≈: the same amount, converted by molar mass. *1 amine or outer side, *2 acyl side, *3 side chain or, on linkers, in order; H or OH if unused. Where a SMILES comes first, the peptide text is derived from it. [ ]: non-standard residue; d: D form. Gly(N-4-hydroxybenzyl) = O=C(O)CNCc1ccc(O)cc1; X1 = O=C(CN(Cc1ccc(C(F)(F)F)cc1)[*:1])[*:2]; Gly(N-cPent) = O=C(O)CNC1CCCC1; Gly(NCH2cPr) = O=C(O)CNCC1CC1; N(cBu)Gly = O=C(O)CNC1CCC1; Nphe = O=C(O)CNCc1ccccc1
How the values were obtained:
[1] = target: T1, CYP1A2 (Homo sapiens, UniProt P05177); test: CYP inhibition assay, CYP1A2; conditions: human liver microsomes 0.25 mg/ml, 10 μM, 15 minutes
T1 sequence (P05177 1-516): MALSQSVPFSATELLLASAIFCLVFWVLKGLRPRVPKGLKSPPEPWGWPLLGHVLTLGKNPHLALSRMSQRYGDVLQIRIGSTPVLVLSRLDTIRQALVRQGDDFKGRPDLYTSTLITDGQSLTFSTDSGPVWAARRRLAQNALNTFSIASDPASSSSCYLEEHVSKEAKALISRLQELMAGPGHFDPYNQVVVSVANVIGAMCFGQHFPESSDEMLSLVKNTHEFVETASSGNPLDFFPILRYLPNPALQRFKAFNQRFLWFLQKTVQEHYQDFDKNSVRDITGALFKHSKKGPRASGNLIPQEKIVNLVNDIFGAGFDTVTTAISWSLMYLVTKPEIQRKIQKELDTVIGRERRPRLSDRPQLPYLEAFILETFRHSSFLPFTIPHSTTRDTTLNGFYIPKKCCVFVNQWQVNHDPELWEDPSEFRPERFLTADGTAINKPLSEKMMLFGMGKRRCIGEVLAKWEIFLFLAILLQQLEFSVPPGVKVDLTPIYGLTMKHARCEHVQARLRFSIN
Method: (§1) Metabolites of each CYP isoenzyme indicator drug produced through the reaction were analyzed by LC-MS/MS using the Shimadzu Nexera XR system and TSQ vantage (Thermo).

[2] = target: CYP2C9 (Homo sapiens, UniProt P11712); test: CYP inhibition assay, CYP2C9; conditions: 10 μM
Method: as §1

[3] = target: CYP2C19 (Homo sapiens, UniProt P33261); test: CYP inhibition assay, CYP2C19; conditions: 10 μM
Method: as §1

[4] = system: AMPK phosphorylation; test: AMPK phosphorylation activity in mouse adipocytes (Western blot); format: cell-based; conditions: 3T3-L1, 10 μM, 24 hours; for AMPK phosphorylation activity (fold change): Western blot, APN5 = 1.0
Method: There were confirmed effects of the peptoid derivative of the present disclosure on the expression and receptor activity of adiponectin in mouse adipocytes as a main adiponectin production site. A mouse adipocyte cell line 3T3-L1 was treated with each of the peptoid derivatives of the present disclosure at a concentration of 10 μM and cultured for 24 hours, and then cells were obtained. Thereafter, the protein was extracted and the effect of adiponectin on AMPK phosphorylation, which was responsible for the main downstream signaling, was confirmed by Western blot.

[5] = target: T2, adiponectin receptor 1 (Mus musculus, UniProt Q91VH1); test: Loss of AMPK phosphorylation activity after knockdown of adiponectin receptor 1; format: cell-based; conditions: 3T3-L1, adiponectin receptor 1 siRNA, 10 μM, 24 hours
T2 construct: a mouse adipocyte cell line 3T3-L1 was treated with siRNA of an adiponectin receptor 1 to be knocked down; endogenous in cells; host or cells: 3T3-L1 mouse adipocyte cell line
T2 sequence (Q91VH1 1-375): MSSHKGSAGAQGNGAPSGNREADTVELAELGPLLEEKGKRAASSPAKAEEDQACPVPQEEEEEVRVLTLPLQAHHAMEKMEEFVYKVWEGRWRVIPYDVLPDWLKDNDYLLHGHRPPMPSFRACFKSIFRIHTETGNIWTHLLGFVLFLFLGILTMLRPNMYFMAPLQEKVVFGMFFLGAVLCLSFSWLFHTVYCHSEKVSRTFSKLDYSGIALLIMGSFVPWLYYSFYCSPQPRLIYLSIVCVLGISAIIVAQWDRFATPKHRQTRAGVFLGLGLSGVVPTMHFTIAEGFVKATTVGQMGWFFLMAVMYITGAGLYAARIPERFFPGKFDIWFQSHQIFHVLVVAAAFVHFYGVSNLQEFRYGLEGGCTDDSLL
Method: In order to verify whether the peptoid derivative of the present disclosure bound to an adiponectin receptor 1, a mouse adipocyte cell line 3T3-L1 was treated with siRNA of an adiponectin receptor 1 to be knocked down, and each of the peptoid derivatives of the present disclosure was treated at a concentration of 10 μM and cultured for 24 hours, and then cells were obtained. Thereafter, the proteins were extracted and it was confirmed by Western blot whether AMPK phosphorylation activity, which had been increased by the peptoid derivatives, was lost.

[6] = physchem; conditions: pH 7.4
Method: (§2) A PRISMA HT solution was diluted in distilled water at a ratio of 1:40, and then used as a test buffer by adjusting the pH to 7.4.
(§3) 10 mL of the prepared test material was diluted in 190 μL of isopropyl alcohol and prepared. In addition, 75 mL of the test solution and 70 mL of isopropyl alcohol were mixed to be used as a blank sample, and 5 mL of the test material diluted in isopropyl alcohol was added to the blank sample. After the diluted sample was mixed, the absorbance was measured and used as an initial test value. […] Thereafter, the precipitate was removed from the sample using a filter plate, 74 mL of the filtered sample was added with 75 mL of isopropyl alcohol, and then the absorbance was measured and used as the sample value.
(§4) The solubility value of the test material was analyzed using a msol Explore (Solubility explorer program) after measuring the absorbance of each sample through a microplate reader. The average and standard deviation of the experimental values (n=3) repeated three times were calculated using the Excel program.

[7] = in vitro; conditions: human, plasma
Method: (§5) The peptoid derivative of the present disclosure was added at a concentration of 1 μM to two types of plasma (human, rat), placed in each tube, and then cultured at 37° C. for time of 0, 30, 60, 120, and 240 minutes. The tube containing plasma was taken out every time, added with an acetonitrile solution containing an internal standard material (chlorpropamide), vortexed for 5 minutes, and centrifuged for 5 minutes (14,000 rpm, 4° C.). Thereafter, the plasma stability of the peptoid derivative was evaluated by injecting the supernatant into an LC-MS/MS system and analyzing the drug at each time period. At this time, Procaine and Enalapril were used as reference materials for accuracy during a general plasma stability test.
(§6) After the reaction, the amount of drug remaining in each tube was analyzed by LC-MS/MS using Shimadzu Nexera XR system and TSQ vantage (Thermo). The HPLC column was used with a Luna C18 column (2.0×50 mm, 3 μm particle size; Phenomenex, US), and the mobile phase was distilled water (A) containing 0.1% formic acid and acetonitrile (B) containing 0.1% formic acid. Data analysis was performed using Xcalibur (version 1.6.1). In the result analysis, the plasma stability of each peptoid derivative was expressed as % remaining for each time period for the sample without culture.

[8] = in vitro; conditions: rat, plasma
Method: as §5, §6

[9] = in vitro; conditions: human, microsomes, pH 7.4
Method: (§7) Three types of liver microsomes (Human, Rat, Mouse, 0.5 mg/ml), a 0.1 M phosphate buffer solution (pH 7.4), and the peptoid derivative of the present disclosure were added at a concentration of 1 μM and pre-cultured at 37° C. for 5 minutes, and then added with an NADPH Regeneration system solution and cultured at 37° C. for 30 minutes. Thereafter, to terminate the reaction, the mixture was added with an acetonitrile solution containing an internal standard material (chlorpropamide), centrifuged for 5 minutes (14,000 rpm, 4° C.), and then the supernatant was injected into the LC-MS/MS system to analyze a substrate drug, and thus metabolic stability was evaluated.
(§8) The HPLC column was used with a Kinetex C18 column (2.1×100 mm, 1.7 μm particle size; Phenomenex, USA), and the mobile phase was distilled water (A) containing 0.1% formic acid and acetonitrile (B) containing 0.1% formic acid. TurboSpray Ionization was used as an ion source for MS/MS, and a triple quadruple type was used as a mass spectrometer. The produced metabolites were quantified using a multiple reaction monitoring (MRM) quantitative mode, and data analysis was performed using Analyst software (version 1.6.1).

[10] = in vitro; conditions: rat, microsomes, pH 7.4
Method: as §7
(§9) The amount of substrate remaining through the reaction was analyzed by LC-MS/MS using Agilent 1290 infinity series pump system (Agilent, USA) and Triple Quad 5500 LC-MS/MS system (Applied Biosystems, USA). The HPLC column was used with a Kinetex C18 column (2.1×100 mm, 1.7 μm particle size; Phenomenex, USA), and the mobile phase was distilled water (A) containing 0.1% formic acid and acetonitrile (B) containing 0.1% formic acid. TurboSpray Ionization was used as an ion source for MS/MS, and a triple quadruple type was used as a mass spectrometer. The produced metabolites were quantified using a multiple reaction monitoring (MRM) quantitative mode, and data analysis was performed using Analyst software (version 1.6.1).

[11] = in vitro; conditions: mouse, microsomes, pH 7.4
Method: as §7, §9

[12] = Plasma stability test, rat plasma; conditions: 1 μM, 37° C.
Method: as §5, §6

[13] = Plasma stability test, human plasma; conditions: 1 μM, 37° C.
Method: as §5, §6

[14] = Solubility test; conditions: test buffer pH 7.4, DMSO test standard solution, room temperature 24 hours, n=3
Method: as §2, §3, §4

[15] = Metabolic stability test, rat liver microsomes; conditions: rat liver microsomes 0.5 mg/ml, 1 μM, NADPH, 37° C.
Method: as §7, §9

[16] = Metabolic stability test, human liver microsomes; conditions: human liver microsomes 0.5 mg/ml, 1 μM, NADPH, 37° C.
Method: as §7, §8

[17] = Metabolic stability test, mouse liver microsomes; conditions: mouse liver microsomes 0.5 mg/ml, 1 μM, NADPH, 37° C.
Method: as §7, §9

[18] = system: AMPK phosphorylation; test: Concentration dependence of AMPK phosphorylation activity; format: cell-based, mouse; conditions: 3T3-L1, 0, 0.01, 0.1, 1, 10, and 100 μM, 24 hours
Text: Thereafter, the protein was extracted and the effect of the peptoid derivative on AMPK phosphorylation in a concentration-dependent manner was confirmed by Western blot.

[19] = human, microsomes, 15 min, pH 7.4
[20] = human liver microsomes 0.25 mg/ml, 15 minutes

CYP2C19, sequence (P33261 whole entry): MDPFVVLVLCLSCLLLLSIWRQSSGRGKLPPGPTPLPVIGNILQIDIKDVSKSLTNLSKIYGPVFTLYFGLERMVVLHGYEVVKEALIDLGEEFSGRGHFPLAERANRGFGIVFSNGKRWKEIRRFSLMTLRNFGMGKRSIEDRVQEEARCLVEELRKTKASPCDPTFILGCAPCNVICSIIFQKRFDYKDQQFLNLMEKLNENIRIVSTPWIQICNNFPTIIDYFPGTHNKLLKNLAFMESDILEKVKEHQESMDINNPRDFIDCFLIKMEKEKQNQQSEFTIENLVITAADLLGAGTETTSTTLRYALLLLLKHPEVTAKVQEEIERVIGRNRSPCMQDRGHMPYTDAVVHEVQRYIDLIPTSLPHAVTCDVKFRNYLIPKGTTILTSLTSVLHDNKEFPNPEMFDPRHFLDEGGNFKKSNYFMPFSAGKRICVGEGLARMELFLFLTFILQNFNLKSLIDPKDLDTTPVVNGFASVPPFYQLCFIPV
CYP2C9, sequence (P11712 whole entry): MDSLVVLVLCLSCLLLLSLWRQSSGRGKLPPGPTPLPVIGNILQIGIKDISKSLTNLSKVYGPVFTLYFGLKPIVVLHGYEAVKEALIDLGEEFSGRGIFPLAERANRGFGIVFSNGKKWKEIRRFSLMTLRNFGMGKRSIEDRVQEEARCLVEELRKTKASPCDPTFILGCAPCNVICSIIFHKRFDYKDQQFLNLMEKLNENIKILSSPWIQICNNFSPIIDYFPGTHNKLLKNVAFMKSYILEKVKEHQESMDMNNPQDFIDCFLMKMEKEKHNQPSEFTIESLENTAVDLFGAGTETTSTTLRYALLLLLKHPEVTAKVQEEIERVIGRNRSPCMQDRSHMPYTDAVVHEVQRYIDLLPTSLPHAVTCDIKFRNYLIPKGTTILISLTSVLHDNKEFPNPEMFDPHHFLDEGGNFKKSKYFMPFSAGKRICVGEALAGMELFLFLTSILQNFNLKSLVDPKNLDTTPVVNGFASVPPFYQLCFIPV

Structure (SMILES) | effect of increasing AMPK phosphorylation activity compared to APN5 [4] | AMPK phosphorylation activity (fold change) [4] | AMPK phosphorylation activity after knockdown of the adiponectin receptor 1 [5] | solubility at 24 h [6] | remaining at 0.5 h, 1 μM [7] | remaining at 2 h, 1 μM [7] | remaining at 0.5 h, 1 μM [8] | remaining at 2 h, 1 μM [8] | remaining at 0.5 h, 1 μM [9] | remaining at 0.5 h, 1 μM [10] | remaining at 0.5 h, 1 μM [11] | Plasma stability (% remaining) Rat, 30 m [12] | Plasma stability (% remaining) Rat, 120 m [12] | also measured
CC(=O)N1CCN(c2ccc(OCC3COC(Cn4ccnc4)(c4ccc(Cl)cc4Cl)O3)cc2)CC1 (stereo not drawn) [Ketoconazole] |  |  |  |  |  |  |  |  |  |  |  |  |  | CYP inhibition (% of control activity) CYP1A2 [1]: 97.2 % of control activity; CYP inhibition (% of control activity) CYP2C9 [2, 19]: >100 % of control activity; CYP inhibition (% of control activity) CYP2C19 [3, 19]: >100 % of control activity
NCC(=O)N(CC(=O)N(CC(=O)N(CC(=O)N(CC(N)=O)Cc1ccc(C(F)(F)F)cc1)Cc1ccccc1)Cc1ccccc1)C1CCCC1 [DS-47, Ngly-Ncpe-Nbn-Ntfb-Nbn-NH2] (H-G[Gly(N-cPent)][Nphe][Nphe][X1]-NH2) | significant effect of increasing AMPK phosphorylation activity | 1.6 fold change | reduced the AMPK phosphorylation activity | 351 µg/mL (≈ 495 µM) | > 100% | > 100% | > 100% | > 100% | 77.2% | 73% | 95.3% |  |  | 
CCOC(=O)[C@H](CCc1ccccc1)N[C@@H](C)C(=O)N1CCC[C@H]1C(=O)O [Enalapril] |  |  |  |  |  |  |  |  |  |  |  | 27.9 % remaining | <1 % remaining | Plasma stability (% remaining) Human, 30 m [13]: >100 % remaining; Plasma stability (% remaining) Human, 120 m [13]: 97.4 % remaining
O=C(COc1ccc(C(=O)c2ccccc2)cc1)NC1CCN(Cc2ccccc2)CC1 [DS-43, adiporon] |  | 1.2 fold change |  |  |  |  |  |  |  |  |  | >100 % remaining | >100 % remaining | CYP inhibition (% of control activity) CYP2C9 [2, 20]: 57.8 % of control activity; CYP inhibition (% of control activity) CYP2C19 [3, 20]: 66.0 % of control activity; Average DMSO solubility [14]: 43.7 µg/mL; Plasma stability (% remaining) Human, 30 m [13]: >100 % remaining; Plasma stability (% remaining) Human, 120 m [13]: >100 % remaining; Metabolic stability (% remaining) Rat, 30 m [15]: 2.3 % remaining; Metabolic stability (% remaining) Human, 30 m [16]: 54.9 % remaining; Metabolic stability (% remaining) Mouse, 30 m [17]: 3.1 % remaining
CCN(CC)CCOC(=O)c1ccc(N)cc1 [Procaine] |  |  |  |  |  |  |  |  |  |  |  | 90.3 % remaining | 57.4 % remaining | Plasma stability (% remaining) Human, 30 m column, cell marked (5 min) ([13]; 5 min as printed in the cell): 2.8 (5 min) % remaining; Plasma stability (% remaining) Human, 120 m column, cell marked (5 min) ([13]; 5 min as printed in the cell): <1 (5 min) % remaining
NCC(=O)N(CCC(=O)O)CC(=O)N(CC(=O)N(CC(=O)N(CC(N)=O)Cc1ccccc1)Cc1ccc(C(F)(F)F)cc1)Cc1ccc(C(F)(F)F)cc1 [DS-71, Ngly-Nasp-Ntfp-Ntfp-Nbn-NH2] |  |  |  | 73.3 µg/mL (≈ 93.8 µM) | > 100% | > 100% | > 100% | > 100% | > 100% | > 100% | 84.4% |  |  | 
NCC(=O)N(CC(=O)N(CC(=O)N(CC(=O)N(CC(N)=O)Cc1ccccc1)Cc1ccc(O)cc1)Cc1ccc(O)cc1)CC1CC1 [DS-31, Ngly-Ncpr-Ntyr-Ntyr-Nbn-NH2] (H-G[Gly(NCH2cPr)][Gly(N-4-hydroxybenzyl)][Gly(N-4-hydroxybenzyl)][Nphe]-NH2) |  |  |  |  | > 100% | > 100% | > 100% | > 100% | 93.7% | 83.7% | 72.2% |  |  | 
NCC(=O)N(CC(=O)N(CC(=O)N(CC(=O)N(CC(N)=O)Cc1ccccc1)Cc1ccc(O)cc1)Cc1ccc(O)cc1)C1CCC1 [DS-15, Ngly-Ncba-Ntyr-Ntyr-Nbn-NH2] (H-G[N(cBu)Gly][Gly(N-4-hydroxybenzyl)][Gly(N-4-hydroxybenzyl)][Nphe]-NH2) | significant effect of increasing AMPK phosphorylation activity | 1.2 fold change | reduced the AMPK phosphorylation activity |  |  |  |  |  |  |  |  |  |  | 
NCC(=O)N(CC(=O)N(CC(=O)N(CC(=O)N(CC(N)=O)Cc1ccccc1)Cc1ccc(O)cc1)Cc1ccccc1)C1CCCC1 [DS-25, Ngly-Ncpe-Nbn-Ntyr-Nbn-NH2] (H-G[Gly(N-cPent)][Nphe][Gly(N-4-hydroxybenzyl)][Nphe]-NH2) | significant effect of increasing AMPK phosphorylation activity | 2.1 fold change | reduced the AMPK phosphorylation activity | 325 µg/mL (≈ 495 µM) | 98.6% | 98.4% | > 100% | 95.9% | 93.6% | 80.9% | 76% |  |  | concentration dependence of AMPK phosphorylation activity [18]: increased AMPK phosphorylation activity in a concentration-dependent manner
NCC(=O)N(CC(=O)N(CC(=O)N(CC(=O)N(CC(N)=O)Cc1ccccc1)Cc1ccc(O)cc1)Cc1ccc(O)cc1)C1CCCC1 [DS-16, Ngly-Ncpe-Ntyr-Ntyr-Nbn-NH2] (H-G[Gly(N-cPent)][Gly(N-4-hydroxybenzyl)][Gly(N-4-hydroxybenzyl)][Nphe]-NH2) | significant effect of increasing AMPK phosphorylation activity | 1.4 fold change | reduced the AMPK phosphorylation activity | 333 µg/mL (≈ 495 µM) | > 100% | > 100% | > 100% | 99.5% | 87.1% | 79.8% | 75.5% |  |  | concentration dependence of AMPK phosphorylation activity [18]: increased AMPK phosphorylation activity in a concentration-dependent manner
